Measurements from ChEMBL document CHEMBL1201862, “PubChem BioAssay data set” (2004).
Active and inactive are the calls of the source.

Experiments:
[1] = Luminescence Cell-Based Dose Retest to Confirm Inhibitors of Cancer Stem Cells. [Related pubchem assays (depositor defined):AID2717, AID2721]; type: functional; settings: Homo sapiens
[2] = fluconazole-exposed Candida albicans growth modulators – fluorescence, retest, confirmation (AID 2467); type: functional, cell-based
[3] = MIN6 cell viability loss – mouse insulinoma, cytotoxicity control, dose response (AID 2122); type: functional;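 note: confirmatory high-throughput counterscreen run to flag cytotoxic compounds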
INS1 = experiment: INS-1E survival protection against cytokine death – cell-based, luminescence, retest, dose response (AID 449756); type: functional; settings: Rattus norvegicus;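 note: cell death triggered by IL-1 beta plus TNF-alpha plus IFN-gamma mixture; protective hits raise ATP signal compared with cytokine alone wells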
[4] = target: Microphthalmia-associated transcription factor (Homo sapiens, UniProt O75030); experiment: reducers of TRPM1 reporter luminescence, concentration series – cell-based, SK-MEL-5, cherry-picked, set 3, MITF inhibitor project, dose response (AID 493073); type: functional;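 note: SK-MEL-5 melanoma cells with luciferase driven by the MITF target TRPM1 promoter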
Chain of Microphthalmia-associated transcription factor (O75030 whole entry): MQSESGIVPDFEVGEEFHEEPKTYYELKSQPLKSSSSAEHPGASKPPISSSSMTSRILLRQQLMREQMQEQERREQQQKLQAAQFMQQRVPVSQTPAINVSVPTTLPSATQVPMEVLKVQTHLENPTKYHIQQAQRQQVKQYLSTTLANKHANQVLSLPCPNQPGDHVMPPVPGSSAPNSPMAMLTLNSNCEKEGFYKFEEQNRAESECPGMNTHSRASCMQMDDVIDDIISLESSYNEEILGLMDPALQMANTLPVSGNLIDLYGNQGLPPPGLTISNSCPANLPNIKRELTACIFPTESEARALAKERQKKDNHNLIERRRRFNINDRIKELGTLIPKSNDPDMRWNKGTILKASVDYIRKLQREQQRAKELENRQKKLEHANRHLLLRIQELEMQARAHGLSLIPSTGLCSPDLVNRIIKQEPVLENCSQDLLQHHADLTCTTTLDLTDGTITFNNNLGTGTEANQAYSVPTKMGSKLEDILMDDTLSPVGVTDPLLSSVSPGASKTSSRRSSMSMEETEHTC

A-375 = experiment: proliferation inhibition in MITF-low A375 cells – cell-based, cherry-pick samples, set 2, counter-screen for MITF modulator project, dose response (AID 540335); type: functional; settings: Homo sapiens
[5] = decrease of insulin promoter-GFP reporter – imaging, high-content screening, mouse beta cells (AID 1628); type: functional; settings: MIN6
[6] = NIH-3T3 fibroblast cytotoxicity, dose response, cytotoxicity control, cell-based, fluorescence, Alamar Blue, secondary assay (AID 2327); type: functional;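 note: NIH-3T3 mouse fibroblasts cultured with fluconazole at 8 µg/mL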
Tumor necrosis factor = Tumor necrosis factor (Homo sapiens, UniProt P01375); experiment: analog potency on TNFa NF-kB signaling – cell-based, revised, SAR follow-up (AID 2337); type: functional
Chain of Tumor necrosis factor (P01375 whole entry): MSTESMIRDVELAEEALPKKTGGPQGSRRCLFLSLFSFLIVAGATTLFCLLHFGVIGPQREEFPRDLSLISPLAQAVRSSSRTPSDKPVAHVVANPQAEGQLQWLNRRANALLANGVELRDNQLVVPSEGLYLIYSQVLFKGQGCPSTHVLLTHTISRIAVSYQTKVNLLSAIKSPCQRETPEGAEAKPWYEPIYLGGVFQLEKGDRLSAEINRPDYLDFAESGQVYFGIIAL

[7] = loss of viability in HepG2 cells – cell-based, CellTiter-Glo, cherry-picked, cytotoxicity control for Shn3 inhibitor project, dose response (AID 624134); type: functional
[8] = target: Nucleotide-binding oligomerization domain-containing protein 1 (Homo sapiens, UniProt Q9Y239); experiment: blockers of NOD1 pathway activity – revised, SAR follow-up (AID 2333); type: functional
Chain of Nucleotide-binding oligomerization domain-containing protein 1 (Q9Y239 whole entry, the tested form may be a part): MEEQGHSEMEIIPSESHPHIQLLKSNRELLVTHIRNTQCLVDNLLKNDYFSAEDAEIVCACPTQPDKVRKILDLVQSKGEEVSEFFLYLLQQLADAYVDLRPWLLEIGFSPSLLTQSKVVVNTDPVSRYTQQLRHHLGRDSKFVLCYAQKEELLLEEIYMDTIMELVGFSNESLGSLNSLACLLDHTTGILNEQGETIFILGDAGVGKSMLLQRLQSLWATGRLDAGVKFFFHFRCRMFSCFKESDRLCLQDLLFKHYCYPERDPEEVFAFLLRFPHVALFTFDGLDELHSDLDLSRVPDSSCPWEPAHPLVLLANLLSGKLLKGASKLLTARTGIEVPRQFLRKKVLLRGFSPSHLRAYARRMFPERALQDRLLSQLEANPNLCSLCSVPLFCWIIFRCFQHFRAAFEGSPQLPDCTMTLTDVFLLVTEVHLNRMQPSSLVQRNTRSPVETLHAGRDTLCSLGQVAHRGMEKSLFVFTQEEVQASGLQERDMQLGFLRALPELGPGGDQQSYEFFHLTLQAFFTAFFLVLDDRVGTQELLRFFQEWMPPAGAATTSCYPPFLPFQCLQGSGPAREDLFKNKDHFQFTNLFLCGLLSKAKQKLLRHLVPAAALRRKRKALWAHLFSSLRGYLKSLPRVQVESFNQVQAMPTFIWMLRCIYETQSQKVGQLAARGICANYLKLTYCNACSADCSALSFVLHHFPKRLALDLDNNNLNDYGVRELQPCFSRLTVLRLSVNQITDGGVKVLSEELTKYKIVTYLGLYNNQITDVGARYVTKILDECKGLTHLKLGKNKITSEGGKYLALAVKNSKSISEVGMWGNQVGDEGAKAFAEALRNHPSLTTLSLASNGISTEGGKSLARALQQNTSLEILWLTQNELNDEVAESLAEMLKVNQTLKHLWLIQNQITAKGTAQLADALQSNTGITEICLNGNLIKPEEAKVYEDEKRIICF

HEK293 [9] = experiment: cells; type: functional, cell-based; settings: Homo sapiens
[10] = non-specific 3'UTR reporter inhibition in Clone20-Shn3RL – cell-based, Renilla luciferase, cherry-picked, counter-screen for Shn3 inhibitor project, dose response (AID 624133); type: functional
[11] = target: Nucleotide-binding oligomerization domain-containing protein 2 (Homo sapiens, UniProt Q9HC29); experiment: inhibition of NOD2-driven NF-kB reporter – cell-based, luminescence, uHTS, HEK293 (AID 1566); type: functional
Chain of Nucleotide-binding oligomerization domain-containing protein 2 (Q9HC29 whole entry, the tested form may be a part): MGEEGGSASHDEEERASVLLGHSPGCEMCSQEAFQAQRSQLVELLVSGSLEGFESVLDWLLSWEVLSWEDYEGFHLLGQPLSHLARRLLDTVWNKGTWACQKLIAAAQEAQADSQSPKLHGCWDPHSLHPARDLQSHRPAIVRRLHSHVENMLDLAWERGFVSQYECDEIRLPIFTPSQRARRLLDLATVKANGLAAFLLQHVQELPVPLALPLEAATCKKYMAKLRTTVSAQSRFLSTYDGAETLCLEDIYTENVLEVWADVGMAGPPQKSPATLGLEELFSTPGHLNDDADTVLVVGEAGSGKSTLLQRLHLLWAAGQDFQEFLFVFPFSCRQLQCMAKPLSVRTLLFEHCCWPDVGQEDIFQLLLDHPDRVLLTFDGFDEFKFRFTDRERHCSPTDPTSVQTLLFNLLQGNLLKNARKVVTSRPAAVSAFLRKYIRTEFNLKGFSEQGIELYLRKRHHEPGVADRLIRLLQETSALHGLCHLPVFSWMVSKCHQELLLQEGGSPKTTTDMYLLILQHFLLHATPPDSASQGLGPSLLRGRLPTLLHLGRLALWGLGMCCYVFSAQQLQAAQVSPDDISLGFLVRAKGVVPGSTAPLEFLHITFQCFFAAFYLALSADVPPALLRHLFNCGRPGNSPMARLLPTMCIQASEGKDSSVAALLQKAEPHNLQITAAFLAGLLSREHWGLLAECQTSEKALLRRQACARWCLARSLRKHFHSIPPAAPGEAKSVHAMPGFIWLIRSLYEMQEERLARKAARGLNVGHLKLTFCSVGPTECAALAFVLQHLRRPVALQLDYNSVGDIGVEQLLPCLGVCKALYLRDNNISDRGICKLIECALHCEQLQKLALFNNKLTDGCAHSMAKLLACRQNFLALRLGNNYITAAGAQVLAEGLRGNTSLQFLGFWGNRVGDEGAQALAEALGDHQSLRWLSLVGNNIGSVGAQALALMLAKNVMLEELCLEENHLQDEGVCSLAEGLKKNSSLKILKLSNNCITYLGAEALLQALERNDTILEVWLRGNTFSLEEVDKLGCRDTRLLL

HEK293 [12] = experiment: cells; type: functional, cell-based; settings: Homo sapiens; remark: listed apart in the source
[13] = reduction of Shn3 3'UTR-driven luciferase in osteoblasts – cell-based, Clone20 osteoblasts, firefly luciferase, cherry-picked, dose response (AID 624132); type: functional;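 note: firefly luciferase luminescence from reporter carrying the Shn3 3'UTR in osteoblasts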
HEK293 [14] = experiment: cells; type: functional, cell-based; settings: Homo sapiens; remark: listed apart in the source
HEK293 [15] = experiment: cells; settings: Homo sapiens
Paired box protein Pax-8 = Paired box protein Pax-8 (Homo sapiens, UniProt Q06710); experiment: PAX8 transcriptional activity inhibition in RMG-I – RMG-I cells, luciferase, cherry-pick, dose response (AID 687027); type: functional, cell-based;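 note: luciferase reporter driven by Pax8 target thyroperoxidase promoter measured by SteadyGlo luminescence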
Chain of Paired box protein Pax-8 (Q06710 whole entry): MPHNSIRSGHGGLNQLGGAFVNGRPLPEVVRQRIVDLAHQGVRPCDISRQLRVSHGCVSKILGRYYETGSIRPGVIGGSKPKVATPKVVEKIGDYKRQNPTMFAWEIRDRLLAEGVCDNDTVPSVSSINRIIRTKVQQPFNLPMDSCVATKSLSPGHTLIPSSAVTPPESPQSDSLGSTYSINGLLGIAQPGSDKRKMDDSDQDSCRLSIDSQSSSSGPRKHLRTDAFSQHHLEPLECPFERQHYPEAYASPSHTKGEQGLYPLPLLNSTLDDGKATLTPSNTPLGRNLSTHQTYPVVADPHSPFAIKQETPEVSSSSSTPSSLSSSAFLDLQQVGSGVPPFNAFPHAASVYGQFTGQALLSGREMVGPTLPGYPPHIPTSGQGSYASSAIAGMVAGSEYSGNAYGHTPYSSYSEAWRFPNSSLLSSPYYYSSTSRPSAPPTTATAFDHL

HEK293 [16] = experiment: NOD2 signaling inhibitors in MDP-stimulated cells, cell-based, uHTS, luminescence (AID 2001); type: functional; settings: Homo sapiens
HEK293 [17] = experiment: inhibition of NOD1-driven NF-kB reporter – cell-based, luminescence, uHTS, primary screen (AID 1578); type: functional; settings: Homo sapiens
Phosphomannomutase 2 = Phosphomannomutase 2 (Homo sapiens, UniProt O15305); experiment: Counter screen SAR assay for PMM2 inhibitors via a fluorescence intensity assay. [Related pubchem assays (depositor defined):AID1545, AID1574]
Chain of Phosphomannomutase 2 (O15305 whole entry): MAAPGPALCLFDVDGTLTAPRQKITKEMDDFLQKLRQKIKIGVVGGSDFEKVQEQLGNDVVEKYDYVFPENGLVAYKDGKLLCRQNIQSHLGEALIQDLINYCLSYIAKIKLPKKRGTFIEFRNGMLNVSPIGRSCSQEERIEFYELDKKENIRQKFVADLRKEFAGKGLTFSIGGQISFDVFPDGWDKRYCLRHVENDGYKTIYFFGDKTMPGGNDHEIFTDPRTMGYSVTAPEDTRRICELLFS

[18] = target: T1, Mannose-6-phosphate isomerase (Homo sapiens, UniProt P34949); experiment: phosphomannose isomerase inhibition – biochemical, fluorescence intensity, confirmation (AID 1535)
T1 sequence (P34949 whole entry): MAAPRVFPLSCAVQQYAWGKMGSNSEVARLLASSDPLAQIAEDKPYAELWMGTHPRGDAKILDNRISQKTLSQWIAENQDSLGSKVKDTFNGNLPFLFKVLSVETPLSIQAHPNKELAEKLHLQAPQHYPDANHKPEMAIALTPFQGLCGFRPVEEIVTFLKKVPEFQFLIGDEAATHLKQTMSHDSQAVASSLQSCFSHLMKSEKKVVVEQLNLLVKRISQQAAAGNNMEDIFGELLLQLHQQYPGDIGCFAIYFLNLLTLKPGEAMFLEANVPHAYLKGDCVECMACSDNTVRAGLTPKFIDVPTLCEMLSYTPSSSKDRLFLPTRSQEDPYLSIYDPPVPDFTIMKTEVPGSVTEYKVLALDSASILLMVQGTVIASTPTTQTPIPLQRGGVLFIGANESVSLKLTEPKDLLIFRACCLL

HEK293 [19] = experiment: cells; settings: Homo sapiens; remark: listed apart in the source
HEK293 [20] = experiment: cells; settings: Homo sapiens; remark: listed apart in the source
[21] = target: DNA dC->dU-editing enzyme APOBEC-3A (Homo sapiens, UniProt P31941); experiment: A3A deaminase inhibition for selectivity – biochemical, dose response (AID 504722); type: functional
Chain of DNA dC->dU-editing enzyme APOBEC-3A (P31941 whole entry): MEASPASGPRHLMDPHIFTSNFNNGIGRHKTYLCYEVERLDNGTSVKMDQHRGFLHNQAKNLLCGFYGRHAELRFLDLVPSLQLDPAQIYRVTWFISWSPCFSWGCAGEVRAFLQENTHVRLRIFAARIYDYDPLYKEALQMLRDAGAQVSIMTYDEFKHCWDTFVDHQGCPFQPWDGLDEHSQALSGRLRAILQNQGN

[22] = target: T1, Mannose-6-phosphate isomerase; experiment: MPI enzyme activity inhibition – biochemical, fluorescence intensity, coupled assay, primary screen (AID 1209)
[23] = target: DNA dC->dU-editing enzyme APOBEC-3G (Homo sapiens, UniProt Q9HC16); experiment: Dose Response confirmation of small molecule APOBEC3G DNA Deaminase Inhibitors via a fluorescence-based single-stranded DNA deaminase assay. [Related pubchem assays (depositor defined):AID493012, AID493028]; type: functional
Chain of DNA dC->dU-editing enzyme APOBEC-3G (Q9HC16 whole entry): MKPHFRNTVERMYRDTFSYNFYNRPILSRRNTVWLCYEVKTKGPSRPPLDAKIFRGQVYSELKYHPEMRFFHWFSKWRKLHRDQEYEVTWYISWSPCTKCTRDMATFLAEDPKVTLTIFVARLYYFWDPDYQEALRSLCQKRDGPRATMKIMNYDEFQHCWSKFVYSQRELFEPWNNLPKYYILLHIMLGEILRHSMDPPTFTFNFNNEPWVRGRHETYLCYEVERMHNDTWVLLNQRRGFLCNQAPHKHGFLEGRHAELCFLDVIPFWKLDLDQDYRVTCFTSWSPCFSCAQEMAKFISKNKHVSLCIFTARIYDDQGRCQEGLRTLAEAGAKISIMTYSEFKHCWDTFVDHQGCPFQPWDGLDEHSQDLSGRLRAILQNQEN

For `Cc1ccc(C(C)C)c(OCc2n[n+](CC(=O)c3ccc(OC(F)F)cc3)c3n2CCCCC3)c1`, the AC50 [1] was 5.68 µM (active), the EC50 [2] was 0.74 µM (active) and the IC50 [3] was 1.13 µM (active). The AC50 (INS1) was 3.09 µM (active), the AC50 [4] was 9.17 µM (active) and the AC50 (A-375) was 20.1 µM (active). The IC50 [5] was 1.27 µM (active) and the EC50 [6] was > 150 µM (inactive).

In the case of `Cc1ccc(S(=O)(=O)NCc2ccc(C(=O)N3CCN(c4ccc([N+](=O)[O-])cc4)CC3)cc2)cc1`, the IC50 (Tumor necrosis factor) is reported as 11.4 µM (active), the AC50 [7] is reported as 39.8 µM (active) and the IC50 [8] is reported as 9.8 µM (active). For the same molecule, the IC50 (HEK293 [9]) was 16.2 µM (active), the AC50 [10] was 11.7 µM (active) and the EC50 [11] was 6.65 µM (active). For the same molecule, the IC50 (HEK293 [12]) was > 20 µM (inactive), the AC50 [13] was 3.79 µM (active) and the IC50 (HEK293 [14]) was 4.67 µM (active). For the same molecule, the IC50 (HEK293 [15]) was > 20 µM (inactive), the AC50 (Paired box protein Pax-8) was 6.91 µM (active) and the IC50 (HEK293 [16]) was 7.59 µM (active). For the same molecule, the EC50 (HEK293 [17]) was 4.26 µM (active).

With `FC(F)(F)c1nnc(/N=c2\ssnc2Cl)s1` the IC50 (Phosphomannomutase 2) was > 100 µM (inactive) and the IC50 [18] was 20.8 µM (active).

With `NC(Cc1ccc(C(F)(F)F)cc1)c1csc(NC(=O)Nc2ccccc2Oc2ccccc2)n1` (stereo not given) the EC50 (HEK293 [19]) was > 59.6 µM (inactive) and the EC50 (HEK293 [20]) was > 59.6 µM (inactive).

In the case of `Cc1ccc(C)n1-c1n[nH]c(=S)[nH]1`, the IC50 (Phosphomannomutase 2) is reported as > 100 µM (inactive), the IC50 [18] is reported as 41.8 µM (active) and the IC50 [21] is reported as > 100 µM (inactive). The IC50 [22] was 13.7 µM (active) and the IC50 [23] was 6.12 µM (active).
